In data set [1] the target is T1, hOCT3 (Homo sapiens, UniProt O75751). The data set is described as follows: hOCT3 direct uptake assay (LC-MS-MS, CHO-TREx-hOCT3 cells). The note with it: specific uptake (induced minus non-induced).
Data set [2] concerns the target T1, hOCT3. Put plainly: hOCT3 competition uptake assay (3H-MPP uptake into CHO-TREx-hOCT3 cells).
Another data set has as its target T2, PgP (Homo sapiens, UniProt P08183).
T2 construct: expressed in transfected cells; host or cells: MDCK cells transfected with tetracycline-inducible TREx-PgP
The data set is described as follows: Transwell monolayer efflux assay, MDCK cells with TREx-PgP. The format is cell-based. The note with it: 2.5 nM 3H-vinblastine, in the presence of 250 μM verapamil. How it is done:
Transwell monolayer efflux assays can be performed by transfecting MDCK cells with the tetracycline-inducible TREx-PgP expression vector. The cells optionally can be transfected with a nucleic acid encoding the transporter of interest. The transfected cells are seeded on polycarbonate filter membranes in transwell dishes and grown for 3-5 days, yielding a polarized monolayer with tight junctions between cells.

Substrate in data set [3]: NCCc1c[nH]cn1
The data set is described as follows: cells, lysate or membranes. The note with it: other: CHO-TREx-hOCT3 cells, specific uptake (induced minus non-induced).

The text below walks through data of patent US7691584B2, “Screening of compounds for OCT3 transporter activity” (XenoPort, Inc., priority 2005, dated 2010).

T2 sequence (P08183 whole entry): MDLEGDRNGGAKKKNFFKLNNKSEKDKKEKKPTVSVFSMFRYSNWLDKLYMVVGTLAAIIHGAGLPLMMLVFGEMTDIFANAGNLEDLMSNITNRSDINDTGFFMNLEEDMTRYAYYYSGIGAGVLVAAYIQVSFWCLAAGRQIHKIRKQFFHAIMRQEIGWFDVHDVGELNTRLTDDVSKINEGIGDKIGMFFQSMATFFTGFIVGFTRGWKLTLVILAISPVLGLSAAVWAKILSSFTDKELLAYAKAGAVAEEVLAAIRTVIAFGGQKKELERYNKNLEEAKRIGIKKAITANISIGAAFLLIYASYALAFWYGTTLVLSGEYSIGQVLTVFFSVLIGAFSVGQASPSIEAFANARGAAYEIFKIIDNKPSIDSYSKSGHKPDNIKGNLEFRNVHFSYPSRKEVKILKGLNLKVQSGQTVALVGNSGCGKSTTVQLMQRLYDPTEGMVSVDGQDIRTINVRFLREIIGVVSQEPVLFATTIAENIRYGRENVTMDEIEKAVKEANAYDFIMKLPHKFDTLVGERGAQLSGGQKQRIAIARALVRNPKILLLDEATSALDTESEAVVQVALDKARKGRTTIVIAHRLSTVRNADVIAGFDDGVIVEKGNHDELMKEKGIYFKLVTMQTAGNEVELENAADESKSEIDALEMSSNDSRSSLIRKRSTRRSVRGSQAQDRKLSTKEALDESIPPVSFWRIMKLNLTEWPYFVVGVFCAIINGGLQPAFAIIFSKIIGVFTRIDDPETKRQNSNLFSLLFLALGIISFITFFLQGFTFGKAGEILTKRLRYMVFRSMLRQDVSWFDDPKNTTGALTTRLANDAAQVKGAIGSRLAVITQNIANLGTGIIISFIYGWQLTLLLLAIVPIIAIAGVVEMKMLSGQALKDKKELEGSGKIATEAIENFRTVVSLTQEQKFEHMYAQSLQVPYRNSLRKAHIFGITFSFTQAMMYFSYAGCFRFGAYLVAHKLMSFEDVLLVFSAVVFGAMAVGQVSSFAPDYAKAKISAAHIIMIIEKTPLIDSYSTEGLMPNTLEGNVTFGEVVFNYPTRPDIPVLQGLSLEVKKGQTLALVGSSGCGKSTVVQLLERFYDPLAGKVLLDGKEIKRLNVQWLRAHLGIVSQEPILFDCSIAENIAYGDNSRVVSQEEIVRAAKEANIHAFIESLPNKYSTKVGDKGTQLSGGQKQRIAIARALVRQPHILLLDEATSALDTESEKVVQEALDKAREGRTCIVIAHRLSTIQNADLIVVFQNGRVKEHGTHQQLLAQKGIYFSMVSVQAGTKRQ

Regarding `NCCc1c[nH]cn1` [Histamine, histamine], the “Direct Uptake Vmax” value on hOCT3 [1] is given as 4.6 pmol/min/well. Moreover, the IC50 – broadly, the concentration needed to halve the response being measured – at hOCT3 [2] was 150 µM. Moreover, the “uptake of labeled MPP with increasing concentration of unlabeled competitor” value at hOCT3 [2] (cells induced to express OCT3, FIG. 2) is given as “decreased”.

Consider `CC[C@]1(O)C[C@@H]2CN(CCc3c([nH]c4ccccc34)[C@@](C(=O)OC)(c3cc4c(cc3OC)N(C)[C@H]3[C@@](O)(C(=O)OC)[C@H](OC(C)=O)[C@]5(CC)C=CCN6CC[C@]43[C@@H]65)C2)C1` [^3H-vinblastine, vinblastine], for which, on PgP, the “apical to basolateral transport” value was “strongly increased” and the “basolateral to apical transport” value was “strongly decreased”.

B1: hOCT3 (Homo sapiens) (protein)
chain: MPSFDEALQRVGEFGRFQRRVFLLLCLTGVTFAFLFVGVVFLGTQPDHYWCRGPSAAALAERCGWSPEEEWNRTAPASRGPEPPERRGRCQRYLLEAANDSASATSALSCADPLAAFPNRSAPLVPCRGGWRYAQAHSTIVSEFDLVCVNAWMLDLTQAILNLGFLTGAFTLGYAADRYGRIVIYLLSCLGVGVTGVVVAFAPNFPVFVIFRFLQGVFGKGTWMTCYVIVTEIVGSKQRRIVGIVIQMFFTLGIIILPGIAYFIPNWQGIQLAITLPSFLFLLYYWVVPESPRWLITRKKGDKALQILRRIAKCNGKYLSSNYSEITVTDEEVSNPSFLDLVRTPQMRKCTLILMFAWFTSAVVYQGLVMRLGIIGGNLYIDFFISGVVELPGALLILLTIERLGRRLPFAASNIVAGVACLVTAFLPEGIAWLRTTVATLGRLGITMAFEIVYLVNSELYPTTLRNFGVSLCSGLCDFGGIIAPFLLFRLAAVWLELPLIIFGILASICGGLVMLLPETKGIALPETVDDVEKLGSPHSCKCGRNKKTPVSRSHL
As for B1, in data set [3], the Km – broadly, the substrate concentration at which the rate is half of its maximum – is 110 µM.
